Source: article PMC5573404, “An aldo-keto reductase is responsible for Fusarium toxin-degrading activity in a soil Sphingomonas strain” (Scientific Reports, 2017)

System: AKR18A1
Assay: HPLC substrate decrease, Michaelis-Menten fit
Assay type: biochemical, Sphingomonas sp. S3-4
Settings: 45 °C

NC(=O)C1=CN([C@@H]2O[C@H](COP(=O)(O)OP(=O)(O)OC[C@H]3O[C@@H](n4cnc5c(N)ncnc54)[C@H](O)[C@@H]3O)[C@@H](O)[C@H]2O)C=CC1 [NADH]
Km (reduction of 3-oxo-DON, sodium phosphate pH 7.0, printed unit mM is doubtful, probably a misprint for μM (assays use 0.2 mM NADH)): 78 ± 28 mM

NC(=O)c1ccc[n+]([C@@H]2O[C@H](COP(=O)(O)OP(=O)(O)OC[C@H]3O[C@@H](n4cnc5c(N)ncnc54)[C@H](OP(=O)(O)O)[C@@H]3O)[C@@H](O)[C@H]2O)c1 [NADP^+]
Km (oxidation of DON, glycine-NaOH pH 10.6): 0.48 ± 0.07 mM
